Test results taken from the supplement of paper PMC10307832.

How the values were obtained:
Assay in all cases: relative viability (nuclei count vs DMSO), 5 days (fraction); higher = more cells survive
IPA-3 + Foretinib = compound: C1=CC=C2C(=C1)C=CC(=C2SSC3=C(C=CC4=CC=CC=C43)O)O [IPA-3] + COc1cc2c(Oc3ccc(NC(=O)C4(C(=O)Nc5ccc(F)cc5)CC4)cc3F)ccnc2cc1OCCCN1CCOCC1 [Foretinib] (partner 0.25 µM)
Procedure, shortened: (§1)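 Relative viability equals treated-well nuclei counts divided by vehicle-well nuclei counts. Counts came from 4× images of lung cancer cell lines grown in 1536-well plates for 5 days after pin-tool dosing on the day after seeding. Dosing used one drug alone or a fixed anchor-drug dose plus five library-drug doses (not always all listed) in √10 steps, and values are medians of duplicate plates.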

Doramapimod + Pemetrexed = compound: Cc1ccc(-n2nc(C(C)(C)C)cc2NC(=O)Nc2ccc(OCCN3CCOCC3)c3ccccc23)cc1 [Doramapimod] + Nc1nc2[nH]cc(CCc3ccc(C(=O)N[C@@H](CCC(=O)O)C(=O)O)cc3)c2c(=O)[nH]1 [Pemetrexed] (partner 0.2 µM)
Procedure, shortened: as §1

RAF265 + Tozasertib = compound: Cn1c(Nc2ccc(C(F)(F)F)cc2)nc2cc(Oc3ccnc(-c4ncc(C(F)(F)F)[nH]4)c3)ccc21 [RAF265] + Cc1cc(Nc2cc(N3CCN(C)CC3)nc(Sc3ccc(NC(=O)C4CC4)cc3)n2)n[nH]1 [Tozasertib] (partner 0.1 µM)
Procedure, shortened: as §1

RAF265 + Decitabine = compound: Cn1c(Nc2ccc(C(F)(F)F)cc2)nc2cc(Oc3ccnc(-c4ncc(C(F)(F)F)[nH]4)c3)ccc21 [RAF265] + Nc1ncn([C@H]2C[C@H](O)[C@@H](CO)O2)c(=O)n1 [Decitabine] (partner 2 µM)
Procedure, shortened: as §1

Cell Line | relative viability (IPA-3 + Foretinib; first compound 0.2 µM) | relative viability (IPA-3 + Foretinib; first compound 0.6325 µM) | relative viability (IPA-3 + Foretinib; first compound 2 µM) | relative viability (IPA-3 + Foretinib; first compound 6.325 µM) | relative viability (IPA-3 + Foretinib; first compound 20 µM) | relative viability (Doramapimod + Pemetrexed; first compound 0.02 µM) | relative viability (Doramapimod + Pemetrexed; first compound 0.06325 µM) | relative viability (Doramapimod + Pemetrexed; first compound 0.2 µM) | relative viability (Doramapimod + Pemetrexed; first compound 0.6325 µM) | relative viability (Doramapimod + Pemetrexed; first compound 2 µM) | relative viability (RAF265 + Tozasertib; first compound 0.01 µM) | relative viability (RAF265 + Tozasertib; first compound 0.03162 µM) | relative viability (RAF265 + Tozasertib; first compound 0.1 µM) | relative viability (RAF265 + Tozasertib; first compound 0.3162 µM) | relative viability (RAF265 + Tozasertib; first compound 1 µM) | relative viability (RAF265 + Decitabine; first compound 0.01 µM) | relative viability (RAF265 + Decitabine; first compound 0.03162 µM) | relative viability (RAF265 + Decitabine; first compound 0.1 µM) | relative viability (RAF265 + Decitabine; first compound 0.3162 µM) | relative viability (RAF265 + Decitabine; first compound 1 µM)
LCLC-103H | 0.908 | 0.862 | 0.756 | 0.725 | 0.775 | 0.436 | 0.417 | 0.413 | 0.428 | 0.424 | 0.472 | 0.48 | 0.42 | 0.424 | 0.227 | 0.767 | 0.714 | 0.682 | 0.695 | 0.367
LK-2 | 1.25 | 1.31 | 1.3 | 1.63 | 1.5 | 0.283 | 0.286 | 0.283 | 0.198 | 0.157 | 0.164 | 0.166 | 0.153 | 0.178 | 0.152 | 0.385 | 0.339 | 0.348 | 0.316 | 0.179
SW 1573 | 1.06 | 0.83 | 0.806 | 0.808 | 0.893 | 0.772 | 0.794 | 0.773 | 0.938 | 0.721 | 0.168 | 0.24 | 0.171 | 0.183 | 0.139 | 0.675 | 0.406 | 0.4 | 0.325 | 0.244
NCI-H2405 | 1.12 | 1.07 | 1.07 | 1.07 | 1.06 | 1.13 | 1.13 | 1.02 | 1.18 | 1.01 | 0.798 | 0.736 | 0.876 | 0.853 | 0.458 | 0.825 | 0.776 | 0.727 | 0.607 | 0.448
